According to patent US8629084B2, “Iodine-phenyl-substituted cyclic cetoenols” (Bayer CropScience AG, priority 2004, dated 2014):
Values belong to the compound of their own block, whether it stands above or below them.

Tests used:
[1] = logP determination by HPLC on reversed-phase column (C18), EEC Directive 79/831 Annex V.A8; assay type: physicochemical; conditions: for log P: value in preparation example text
Description: • The logP values given in the Tables and Preparation Examples above are determined in accordance with EEC Directive 79/831 Annex V.A8 by HPLC (High Performance Liquid Chromatography) on a reversed-phase column (C18). Temperature: 43° C.
The determination is carried out in the acidic range at pH 2.3 using the mobile phases 0.1% aqueous phosphoric acid and acetonitrile; linear gradient from 10% acetonitrile to 95% acetonitrile. […]
Calibration is carried out using unbranched alkan-2-ones (having 3 to 16 carbon atoms) with known logP values (determination of the logP values by the retention times using linear interpolation between two successive alkanones).

cereal = experiment: Herbicidal post-emergence action with use of safeners (Example G): container trials with cereal in a greenhouse, mefenpyr 1 day prior to herbicide application; assay type: in vivo; conditions: without safener
Description: Herbicidal Post-Emergence Action
Seeds of monocotyledonous and dicotyledonous weed and crop plants are placed into sandy loam in wood fiber pots or in plastic pots, covered with soil and cultivated in a greenhouse, during the vegetation period also outdoors outside of the greenhouse, under good growth conditions. Two to three weeks after sowing, the test plants are treated at the one- to three-leaf stage. The test compounds, formulated as wettable powders (WP) or liquid (EC), are, in various dosages at a water application rate of 300 l/ha (converted), with wetting agent (0.2 to 0.3%) added, sprayed onto the plants and the surface of the soil. […]
If it is additionally to be tested as to whether safeners can improve the plant compatibility of test substances in the case of crop plants, the following options are used for applying the safener: • seeds of the crop plants are, before sowing, dressed with the safener substance (the amount of safener stated in percent, based on the weight of the seed) • before the application of the test substances, the crop plants are sprayed with the safener at a certain application rate per hectare (usually 1 day before the application of the test substances) • the safener is applied together with the test substance as a tank mix (the amount of safener is stated in g/ha or as a ratio, based on the herbicide).
By comparing the effect of test substances on crop plants without or with safener treatment, it is possible to assess the effect of the safener substance.
Container Trials with Cereal in a Greenhouse
Mefenpyr 1 day prior to herbicide application

[2] = system: brown plant hopper (Nilaparvata lugens); experiment: Nilaparvata lugens test (hydroponic treatment); assay type: in vivo; conditions: concentration of 20 ppm
Description: Nilaparvata Lugens Test (Hydroponic Treatment)
Solvents: 78 parts by weight of acetone • • 1.5 parts by weight of dimethylformamide
Emulsifier: 0.5 part by weight of alkylaryl polyglycol ether
To produce a suitable preparation of active compound, 1 part by weight of active compound is mixed with the stated amounts of solvents and emulsifier, and the concentrate is diluted with emulsifier-containing water to the desired concentration.
The active compound preparation is pipetted into water. The stated concentration refers to the amount of active compound per volume unit of water (mg/l=ppm). After the desired period of time, the water is infected with the brown plant hopper (Nilaparvata lugens).
After the desired period of time, the effect in % is determined. 100% means that all plant hoppers have been killed; 0% means that none of the plant hoppers have been killed.

[3] = compounds of formula (I-2-a), HPLC reversed-phase C18, 43° C., acidic range pH 2.3, 0.1% aqueous phosphoric acid/acetonitrile
[4] = compounds of formula (I-2-b), HPLC reversed-phase C18, 43° C., acidic range pH 2.3, 0.1% aqueous phosphoric acid/acetonitrile
[5] = HPLC, reversed-phase C18, 43° C., acidic range pH 2.3 (0.1% aqueous phosphoric acid/acetonitrile), table of formula (I-2-c)
[6] = HPLC, reversed-phase C18, 43° C., acidic range pH 2.3 (0.1% aqueous phosphoric acid/acetonitrile)
[7] = summer wheat, 25 g of a.i./ha, 10 days after application
[8] = summer wheat, 50 g of a.i./ha, 10 days after application
[9] = summer wheat, 100 g of a.i./ha, 10 days after application

logP [1, 3]: 2.19
Compound: COC1CCC2(CC1)OC(=O)C(c1cc(C)ccc1I)=C2O (stereo not shown) [Example I-2-a-4]

logP [1, 3]: 2.63
Compound: CCc1cc(I)cc(C)c1C1=C(O)C2(CCOCC2)OC1=O [Example I-2-a-5]

logP [1, 4]: 4.72
Compound: CCc1cc(I)cc(C)c1C1=C(OC(=O)C(C)C)C(C)(C)OC1=O [I-2-b-8]

logP [1, 5]: 4.66
Compound: CCc1cc(I)cc(C)c1C1=C(OC(=O)OC(C)C)C(C)(C)OC1=O [I-2-c-3]

logP [1, 5]: 4.77
Compound: CCc1cc(I)cc(C)c1C1=C(OC(=O)OC(C)C)C2(CCC(OC)CC2)OC1=O (stereo not shown) [I-2-c-4]

log P [1, 6]: 3.53
Compound: CC(C)C(=O)OC1=C(c2ccccc2I)C(=O)OC1(C)C [Example I-2-b-1]

logP [1, 5]: 4.41
Compound: CCc1cc(I)cc(C)c1C1=C(OC(=O)OC(C)C)C2(CCOCC2)OC1=O [I-2-c-5]

logP [1, 3]: 2.92
Compound: CCc1cc(I)cc(C)c1C1=C(O)C2(CCC(OC)CC2)OC1=O (stereo not shown) [Example I-2-a-6]

log P [1, 6]: 3.47
Compound: CC(C)OC(=O)OC1=C(c2ccccc2I)C(=O)OC1(C)C [Example I-2-c-1]

log P [1, 6]: 1.80
Compound: CC1(C)OC(=O)C(c2ccccc2I)=C1O [Example I-2-a-1]

logP [1, 4]: 4.79
Compound: CCc1cc(I)cc(C)c1C1=C(OC(=O)C(C)C)C2(CCC(OC)CC2)OC1=O (stereo not shown) [Example I-2-b-10]
Summer wheat observed (%) (cereal; [7]): 15%
Summer wheat observed (%) (cereal; summer wheat, 25 g of a.i./ha, 28 days after application): 25%
Summer wheat observed (%) (cereal; [8]): 30%
Summer wheat observed (%) (cereal; summer wheat, 50 g of a.i./ha, 28 days after application): 40%
Summer wheat observed (%) (cereal; [9]): 50%
Summer wheat observed (%) (cereal; summer wheat, 100 g of a.i./ha, 28 days after application): 50%
Summer wheat observed (%) (cereal; summer wheat, 200 g of a.i./ha, 10 days after application): 70%
Summer wheat observed (%) (cereal; summer wheat, 200 g of a.i./ha, 28 days after application): 75%
Summer wheat observed (%) (cereal; the 21st table second column (also headed Summer wheat), 25 g of a.i./ha, 10 days after application): 60%
Summer wheat observed (%) (cereal; the 21st table second column (also headed Summer wheat), 50 g of a.i./ha, 10 days after application): 65%

logP [1, 4]: 3.87
Compound: CC(C)(C)C(=O)OC1=C(c2ccccc2I)C(=O)OC1(C)C [Example I-2-b-4]

logP [1, 4]: 4.57
Compound: COC1CCC2(CC1)OC(=O)C(c1cc(C)ccc1I)=C2OC(=O)C(C)(C)C (single isomer, unassigned) [Example I-2-b-6]

Compound: CCOC(=O)OC1=C(c2c(C)cc(I)cc2CC)C(=O)NC12CCC(OC)CC2 (stereo not shown) [Example I-1-c-1]
Summer wheat observed (%) (cereal; the 20th table, summer wheat, 12.5 g of a.i./ha, 10 days after application): 50%

logP [1, 4]: 5.21
Compound: COC1CCC2(CC1)OC(=O)C(c1c(C)cc(I)cc1C)=C2OC(=O)C(C)(C)C (single isomer, unassigned) [Example I-2-b-12]

logP [1, 3]: 2.94
Compound: COC1CCC2(CC1)OC(=O)C(c1c(C)cc(I)cc1C)=C2O (stereo not shown) [Example I-2-a-9]

logP [1, 4]: 4.24
Compound: COC1CCC2(CC1)OC(=O)C(c1cc(C)ccc1I)=C2OC(=O)C(C)(C)C (single isomer, unassigned) [Example I-2-b-7]

logP [1, 3]: 2.51
Compound: Cc1ccc(I)c(C2=C(O)C3(CCCC3)OC2=O)c1 [I-2-a-3]

logP [1, 3]: 2.81
Compound: CCc1cc(I)cc(C)c1C1=C(O)C(C)(C)OC1=O [I-2-a-7]

logP [1, 4]: 3.6
Compound: COC1CCC2(CC1)OC(=O)C(c1ccccc1I)=C2OC(=O)C(C)C (stereo not shown) [Example I-2-b-3]

logP [1, 4]: 4.42
Compound: CCc1cc(I)cc(C)c1C1=C(OC(=O)C(C)C)C2(CCOCC2)OC1=O [Example I-2-b-9]

logP [1, 4]: 3.95
Compound: COC1CCC2(CC1)OC(=O)C(c1ccccc1I)=C2OC(=O)C(C)(C)C (stereo not shown) [Example I-2-b-2]

logP [1, 4]: 4.9
Compound: COC1CCC2(CC1)OC(=O)C(c1c(C)cc(I)cc1C)=C2OC(=O)C(C)(C)C (single isomer, unassigned) [Example I-2-b-13]

Compound: Cc1cc(C)c(C2=C(O)C3(CCC(C)CC3)NC2=O)c(I)c1 (stereo not shown) [Example I-1-a-3]
Summer wheat observed (%) (cereal; summer wheat, 12.5 g of a.i./ha, 10 days after application): 10%
Summer wheat observed (%) (cereal; [7]): 20%
Summer wheat observed (%) (cereal; [8]): 30%
Summer wheat observed (%) (cereal; [9]): 40%

logP [1, 3]: 1.92
Compound: COC1CCC2(CC1)OC(=O)C(c1ccccc1I)=C2O (stereo not shown) [Example I-2-a-2]
efficacy (plant hoppers killed) [2]: ≥ 80%

logP [1, 5]: 3.54
Compound: COC1CCC2(CC1)OC(=O)C(c1ccccc1I)=C2OC(=O)OC(C)C (stereo not shown) [I-2-c-2]

logP [1, 4]: 4.68
Compound: Cc1ccc(I)c(C2=C(OC(=O)C(C)(C)C)C3(CCCC3)OC2=O)c1 [Example I-2-b-5]

logP [1, 3]: 3.00
Compound: CCc1cc(I)cc(C)c1C1=C(O)C2(CCCC2)OC1=O [I-2-a-8]

logP [1, 4]: 5.26
Compound: Cc1cc(I)cc(C)c1C1=C(OC(=O)C(C)(C)C)C2(CCCC2)OC1=O [Example I-2-b-11]
